“And” between values parts separate entries of the source, which are not always exact repeats. Equal values may be shown once.
Test system: SW1271 complex spheroids with HUVEC/MSC, growth, % test/control
Experiment: Anticancer human tumor SW1271 cell line growth inhibition [AhR];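 further: spheroids exposed to agents for 7 days before readout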
Conditions: for viability, T/C: stronger effect = lower value
From the text: Multicellular complex tumor spheroid response to aryl hydrocarbon receptor antagonists in combination with a variety of drugs and investigational agents in selected tumor cell lines
The current study was undertaken to assess response to aryl hydrocarbon receptor antagonists in combination with standard-of-care drugs and investigational agents in solid tumor complex spheroid models. Complex spheroids include a stromal component modeled by human endothelial cells (HUVEC) and fibroblasts modeled by human mesenchymal stem cells (MSCs). The concentration ranges selected for each drug and investigational agent were based upon clinically achievable concentrations if the clinical Cmax of the agent was known.
Compounds. The drugs and investigational agents: BAY 2416964 (NSC825713), GNF351 (NSC835774), CH-223191 (NSC835775), CPI-455 (NSC825282), aza-TdCyd (NSC777586), decitabine (NSC127716), belinostat (NSC758774), entinostat (NSC756642), pevonedistat (NSC761192), tazemetostat (NSC777109), talazoparib (NSC765396), olaparib (NSC753686), selinexor (NSC780203), nedisertib (M3814, NSC802822), bortezomib (NSC756655), venetoclax (NSC766270), doxorubicin (NSC123127), elimusertib (BAY189344, NSC800525), ceralasertib (AZD6738, NSC777638), TAK-243 (NSC785004), alisertib (NSC759677), etoposide (NSC141540), topotecan (NSC609699), eribulin (NSC707389), gemcitabine (NSC613327), carboplatin (NSC241240), cisplatin (NSC119875), and SN-38 (NSC673596) were obtained from the National Cancer Institute (NCI) Developmental Therapeutics Program Chemical Repository (32). The FDA-approved anticancer drug set is available from the Developmental Therapeutics Program at https://dtp.cancer.gov/organization/dscb/obtaining/available plates.htm. […] The stock solutions were prepared in dimethyl sulfoxide (DMSO, Sigma-Aldrich, St. Louis, MO, cat. D2650), except for the platinum compounds which were prepared in saline (Quality Biological, Gaithersburg, MD, cat. 114-055-101), at 800-fold the tested concentration and stored at -70 degrees C prior to their use. All drugs and investigational agents were tested over a range starting from a high concentration at or near the clinical Cmax and decreasing in half-log increments. If the clinical Cmax for an agent had not been determined, the highest concentration tested was 10 microM (Table 1).
Cell Culture. All cells were maintained in an incubator at 37 degrees C and 5% CO2 with 95% humidity. The PDC lines were cultured according to standard operating procedures established by the NCI PDMR (https://pdmr.cancer.gov). Briefly, all PDCs were thawed and cultured in Matrigel-coated flasks prepared with a working solution of 1X Ham's F-12 nutrient mix, without supplementation (Invitrogen, Waltham, MA, cat. 11765054), 100 U/mL penicillin-streptomycin (Invitrogen, cat. 15140122), and 2.5% Matrigel (Corning Inc., Corning, NY, cat. 354248) for the first three passages. All PDCs were cultured in complete DMEM/F-12 media containing advanced DMEM/F-12 (Invitrogen, cat. 12634028), 4.9% defined fetal bovine serum, heat inactivated (HyClone Laboratories Inc., Logan, UT, cat. SH30070.03HI), 389 ng/mL hydrocortisone (Sigma-Aldrich, cat. H4001), 9.7 ng/mL human EGF recombinant protein (Invitrogen, cat. PHG0313), 23.4 microg/mL adenine (Sigma-Aldrich, cat. A2786), 97.3 U/mL penicillin-streptomycin (Invitrogen, cat. 15140122), 1.9 mM L-glutamine (Invitrogen, cat. 25030081), and 9.7 microM Y-27632 dihydrochloride (Tocris Bioscience, Bristol, United Kingdom, cat. 1254). The PDCs were cultured in complete DMEM/F12 media without 10 microM Y-27632 dihydrochloride for at least two passages prior to the screen. The established cell lines NCI-H1341 and […] were cultured in DMEM/F-12, HEPES (Invitrogen, cat. 11330032), 5% defined fetal bovine serum (HyClone Laboratories Inc., cat. SH30070.03), ITS premix universal culture supplement [insulin (5 microg/mL), transferrin (5 microg/mL), and selenious acid (5 ng/mL)] […]

Structure (SMILES): CCN(c1cc(-c2ccc(CN3CCOCC3)cc2)cc(C(=O)NCc2c(C)cc(C)[nH]c2=O)c1C)C1CCOCC1
- viability, T/C (compound 0.00949 µM): 104% and 90.3% and 94.7%
- viability, T/C (compound 0.03 µM): 96.7% and 99.1% and 104%
- viability, T/C (compound 0.0949 µM): 86.3% and 110% and 120%
- viability, T/C (compound 0.3 µM): 93.2% and 124% and 111%
- viability, T/C (compound 0.949 µM): 90.6% and 106% and 125%
- viability, T/C (compound 3 µM): 102% and 115% and 107%
- IC50 (curve of compound): > 3000 nM

Structure (SMILES): Nc1ncn(C2CC(O)C(CO)S2)c(=O)n1 (stereo not drawn) + Cc1cncc(-c2nc(NCCc3c[nH]c4ccccc34)c3ncn(C(C)C)c3n2)c1
- IC50 (curve of first compound, second compound 0.1 µM): > 300 nM
- IC50 (curve of first compound, second compound 0.316 µM): > 300 nM
- IC50 (curve of first compound, second compound 1 µM): > 300 nM
- IC50 (curve of first compound, second compound 3.16 µM): > 300 nM
- IC50 (curve of first compound, second compound 10 µM): < 0.949 nM
- viability, T/C (second compound 0.1 µM, first compound 0.000949 µM): 73.1%
- viability, T/C (second compound 0.1 µM, first compound 0.003 µM): 93.7%
- viability, T/C (second compound 0.1 µM, first compound 0.00949 µM): 97.1%
- viability, T/C (second compound 0.1 µM, first compound 0.03 µM): 90.9%
- viability, T/C (second compound 0.1 µM, first compound 0.0949 µM): 99.6%
- viability, T/C (second compound 0.1 µM, first compound 0.3 µM): 98.5%
- viability, T/C (second compound 0.316 µM, first compound 0.000949 µM): 94.2%
- viability, T/C (second compound 0.316 µM, first compound 0.003 µM): 84.2%
- viability, T/C (second compound 0.316 µM, first compound 0.00949 µM): 81.8%
- viability, T/C (second compound 0.316 µM, first compound 0.03 µM): 84.8%
- viability, T/C (second compound 0.316 µM, first compound 0.0949 µM): 101%
- viability, T/C (second compound 0.316 µM, first compound 0.3 µM): 90.9%
- viability, T/C (second compound 1 µM, first compound 0.000949 µM): 93.8%
- viability, T/C (second compound 1 µM, first compound 0.003 µM): 104%
- viability, T/C (second compound 1 µM, first compound 0.00949 µM): 104%
- viability, T/C (second compound 1 µM, first compound 0.03 µM): 98.7%
- viability, T/C (second compound 1 µM, first compound 0.0949 µM): 96.9%
- viability, T/C (second compound 1 µM, first compound 0.3 µM): 90.5%
- viability, T/C (second compound 3.16 µM, first compound 0.000949 µM): 94.1%
- viability, T/C (second compound 3.16 µM, first compound 0.003 µM): 86.4%
- viability, T/C (second compound 3.16 µM, first compound 0.00949 µM): 86%
- viability, T/C (second compound 3.16 µM, first compound 0.03 µM): 82.3%
- viability, T/C (second compound 3.16 µM, first compound 0.0949 µM): 74.2%
- viability, T/C (second compound 3.16 µM, first compound 0.3 µM): 78.4%
- viability, T/C (second compound 10 µM, first compound 0.000949 µM): 45.5%
- viability, T/C (second compound 10 µM, first compound 0.003 µM): 44.8%
- viability, T/C (second compound 10 µM, first compound 0.00949 µM): 45.6%
- viability, T/C (second compound 10 µM, first compound 0.03 µM): 39.8%
- viability, T/C (second compound 10 µM, first compound 0.0949 µM): 49.3%
- viability, T/C (second compound 10 µM, first compound 0.3 µM): 43.9%

Structure (SMILES): Nc1ccn(C2OC(CO)C(O)C2(F)F)c(=O)n1 (stereo not drawn)
- viability, T/C (compound 0.0316 µM): 75.2% and 49% and 67.7%
- viability, T/C (compound 0.1 µM): 65.6% and 48.5% and 66.2%
- viability, T/C (compound 0.316 µM): 69.9% and 41.9% and 48.2%
- viability, T/C (compound 1 µM): 57.6% and 44.3% and 50%
- viability, T/C (compound 3.16 µM): 57.8% and 50.9% and 56.9%
- viability, T/C (compound 10 µM): 64.4% and 44.9% and 47.5%

From PubChem BioAssay AID1919017 (Molecular Pharmacology Branch, DTP, NCI, 2023)
